This note sets out measurements from ChEMBL document CHEMBL1132667, “P2-achiral, P'-extended alpha-ketoamide inhibitors of calpain I” (Bioorg Med Chem Lett, 1999).

A word on the pKi: it is −log10 of the Ki, conventionally taken in molar units.

Structures are written as SMILES. pKi: −log10 of the molar value.

The target of one assay is T1, Calpain-1 catalytic subunit (Homo sapiens, UniProt P07384).
T1 sequence (P07384 whole entry): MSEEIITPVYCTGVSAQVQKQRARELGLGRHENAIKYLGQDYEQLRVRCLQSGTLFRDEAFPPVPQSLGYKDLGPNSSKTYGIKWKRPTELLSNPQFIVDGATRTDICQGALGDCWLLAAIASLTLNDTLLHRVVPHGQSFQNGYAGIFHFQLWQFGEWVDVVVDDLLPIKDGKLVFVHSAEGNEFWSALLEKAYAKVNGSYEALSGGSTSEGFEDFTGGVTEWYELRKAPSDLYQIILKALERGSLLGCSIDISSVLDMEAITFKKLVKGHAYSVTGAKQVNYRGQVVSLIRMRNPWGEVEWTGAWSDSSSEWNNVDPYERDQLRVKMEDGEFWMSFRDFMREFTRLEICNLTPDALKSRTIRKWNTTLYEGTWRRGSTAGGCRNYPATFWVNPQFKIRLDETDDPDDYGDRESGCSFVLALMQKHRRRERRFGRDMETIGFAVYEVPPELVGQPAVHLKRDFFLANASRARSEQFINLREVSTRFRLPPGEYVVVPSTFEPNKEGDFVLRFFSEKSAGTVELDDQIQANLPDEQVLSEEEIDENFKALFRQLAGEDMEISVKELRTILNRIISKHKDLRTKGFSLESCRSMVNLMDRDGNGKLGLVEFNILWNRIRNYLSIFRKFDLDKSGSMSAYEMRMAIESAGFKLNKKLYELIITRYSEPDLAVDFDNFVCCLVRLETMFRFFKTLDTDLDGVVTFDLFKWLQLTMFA
Briefly: Inhibitory activity against recombinant human Calpain 1.
On to `O=C(CCCc1ccccc1)N[C@@H](Cc1ccccc1)C(=O)C(=O)NCCNS(=O)(=O)c1ccc(-c2ccccn2)s1`, for which the pKi was 5.96. In the case of `CC(C)CC(=O)N[C@@H](Cc1ccccc1)C(=O)C(=O)NCCNS(=O)(=O)c1ccc(-c2ccccn2)s1`, the pKi was 6.38. Consider `O=C(NCCNS(=O)(=O)c1ccc(-c2cccc(CN3CCOCC3)c2)s1)C(=O)[C@H](Cc1ccccc1)NC(=O)c1c(Cl)cccc1Cl`, for which the pKi was 7.68. Same read-out and setting: to `CC(C)CCC(=O)N[C@@H](Cc1ccccc1)C(=O)C(=O)NCCNS(=O)(=O)c1ccc(-c2ccccn2)s1` belongs 7.68; to `CC(C)C(=O)N[C@@H](Cc1ccccc1)C(=O)C(=O)NCCNS(=O)(=O)c1ccc(-c2ccccn2)s1`, 5.96. For `O=C(Cc1ccc(Cl)nc1Cl)N[C@@H](Cc1ccccc1)C(=O)C(=O)NCCNS(=O)(=O)c1ccc(-c2ccccn2)s1`, the pKi is 7.24.

The target of the next assay is T1, Calpain-1 catalytic subunit. Briefly: Inhibitory activity against recombinant human calpain I.
As to `N#Cc1cccc(-c2ccc(S(=O)(=O)NCCNC(=O)C(=O)[C@H](Cc3ccccc3)NC(=O)c3c(Cl)cccc3Cl)s2)c1`, the pKi was 8.10. On the same count and under the same terms, to `O=C(NCCNS(=O)(=O)c1ccc(-c2ccccn2)s1)C(=O)[C@H](Cc1ccccc1)NC(=O)c1cc(Cl)ccc1Cl` belongs 7.31; to `CC(=O)N1CCN(Cc2ccc(S(=O)(=O)NCCNC(=O)C(=O)[C@H](Cc3ccccc3)NC(=O)c3c(Cl)cccc3Cl)cc2)CC1`, 7.15. Same read-out and setting: to `O=C(NCCNS(=O)(=O)c1ccc(-c2ccccn2)s1)C(=O)[C@H](Cc1ccccc1)NC(=O)c1c(Cl)cccc1Cl` belongs 7.59; to `CC(=O)NCc1cccc(-c2ccc(S(=O)(=O)NCCNC(=O)C(=O)[C@H](Cc3ccccc3)NC(=O)c3c(Cl)cccc3Cl)s2)c1`, 7.85. On the same count and under the same terms, to `O=C(NCCNS(=O)(=O)c1ccc(CN2CCN(c3ccccn3)CC2)cc1)C(=O)[C@H](Cc1ccccc1)NC(=O)c1c(Cl)cccc1Cl` belongs 7.23. With `O=Cc1cccc(-c2ccc(S(=O)(=O)NCCNC(=O)C(=O)[C@H](Cc3ccccc3)NC(=O)c3c(Cl)cccc3Cl)s2)c1`, the pKi was 7.82. Take `COc1ccc(Cl)c(C(=O)N[C@@H](Cc2ccccc2)C(=O)C(=O)NCCNS(=O)(=O)c2ccc(-c3ccccn3)s2)c1`: the negative logarithm of the Ki (pKi) was 7.34. Take `O=C(N[C@@H](Cc1ccccc1)C(=O)O)c1c(Cl)cccc1Cl`: the pKi is around 6.44.

For the compound `O=C(NCCNS(=O)(=O)c1ccc(-c2ccccn2)s1)C(=O)[C@H](Cc1ccccc1)NC(=O)c1cc(C(F)(F)F)cc(C(F)(F)F)c1`, the pKi is 6.37. Regarding `Cc1cccc(C)c1C(=O)N[C@@H](Cc1ccccc1)C(=O)C(=O)NCCNS(=O)(=O)c1ccc(-c2ccccn2)s1`, the pKi is 6.89.

As to `O=C(NCCNS(=O)(=O)c1ccc(-c2ccccn2)s1)C(=O)[C@H](Cc1ccccc1)NC(=O)c1ccccc1`, the pKi is 6.24. Same read-out and setting: in the case of `CC(CCC(=O)N[C@@H](Cc1ccccc1)C(=O)C(=O)NCCNS(=O)(=O)c1ccc(-c2ccccn2)s1)c1ccccc1` (some centres not stated) it was 7.21. Turning to `CS(=O)(=O)N[C@H](COCc1ccccc1)C(=O)N[C@@H](Cc1ccccc1)C(=O)C(=O)NCCNS(=O)(=O)c1ccc(-c2ccccn2)s1`, the pKi was 8.00. Consider `O=C(NCCNS(=O)(=O)c1ccc(-c2ccccn2)s1)C(=O)[C@H](Cc1ccccc1)NC(=O)c1c(F)cccc1F`, for which the pKi was 7.85. On the same count and under the same terms, to `O=C(NCCNS(=O)(=O)c1ccc(-c2ccccn2)s1)C(=O)[C@H](Cc1ccccc1)NC(=O)c1ccc2c(c1)OCO2` belongs below 6.00.
